SMILES strings stand for the structures. Inconclusive results are not listed. Active and inactive are the calls of the source. No rule for the calls is given here.

The term AC50 denotes the concentration giving half of the maximal activity seen.

The experiment deals with Zinc finger protein mex-5 (Caenorhabditis elegans) (UniProt Q9XUB2). Put plainly: retest of MEX-5 TCR-2 binding inhibitors, confirmation, biochemical, C. elegans, fluorescence polarization, dose retest (AID 449745).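 Also: potency is for blocking Mex-5 binding to labeled TCR2 RNA like unlabeled competitor.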 The conditions noted are these: Mex-5 / TCR-2 RNA binding. For orientation: In fluorescence polarisation assays a small probe gives low polarisation when free and higher when bound to something large.
Chain of Zinc finger protein mex-5 (Caenorhabditis elegans) (Q9XUB2 whole entry, looked up): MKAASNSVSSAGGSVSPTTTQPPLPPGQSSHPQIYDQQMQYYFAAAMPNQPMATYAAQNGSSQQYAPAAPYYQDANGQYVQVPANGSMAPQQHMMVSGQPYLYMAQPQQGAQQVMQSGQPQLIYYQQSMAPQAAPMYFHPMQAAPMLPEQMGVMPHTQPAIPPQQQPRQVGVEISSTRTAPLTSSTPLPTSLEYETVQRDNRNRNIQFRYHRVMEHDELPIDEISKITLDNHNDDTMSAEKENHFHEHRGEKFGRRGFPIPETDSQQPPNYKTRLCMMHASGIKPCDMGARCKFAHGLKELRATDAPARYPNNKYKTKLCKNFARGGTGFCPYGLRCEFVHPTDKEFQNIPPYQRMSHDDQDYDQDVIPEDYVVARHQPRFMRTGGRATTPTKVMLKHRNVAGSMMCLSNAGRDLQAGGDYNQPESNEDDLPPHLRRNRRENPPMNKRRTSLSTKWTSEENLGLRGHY
As for `CCc1ccc[n+](-c2[nH]c(=O)sc2/C=N/NC([S-])=Nc2ccccc2)c1`, the AC50 is 4.63 µM.
Take `CN(C)c1ccc(/C=N/NC(=O)c2cnc3ccccc3c2)cc1`: the AC50 was 31.7 µM.
Then `COC/C=C/C1=CC2=CC(=O)C(C)(OC(=O)c3cnc4ccccc4n3)C(=O)C2=CO1` (stereo unspecified), with 17.4 µM; and `CCc1ccc(N2C(=O)NC(=O)/C(=C/c3cccn3CCOc3ccc(C(C)CC)cc3)C2=O)cc1` (stereo unspecified), with > 38 µM (inactive); and `CCOC(=O)c1cc(C#N)c(SCC(N)=O)[nH]c1=O`, with > 38 µM (inactive).
Regarding `CC(C)OC(=O)c1c2c(n3ccccc13)C(=O)c1ccccc1C2=O`, the AC50 is 19.1 µM.
For `O=c1[nH]c(/C=C/c2cccc3ccccc23)nc2ccccc12` the value was > 38 µM (inactive).
For `NS(=O)(=O)c1ccc(N=Nc2c(=O)[nH]n3c(=O)c4c([nH]c23)CCCC4)cc1` the value was < 0.3 µM; for `NC(=S)NNc1cccc2cccnc12`, 0.987 µM.
For `O=C(O)CCCCCN1C(=O)C(O)=C(C(=O)/C=C/c2ccccc2)C1c1ccccc1[N+](=O)[O-]` (stereo unspecified) the value was > 38 µM (inactive); for `Cc1ccc(N=C2NC(=O)/C(=C\c3ccc(C)s3)S2)cc1`, > 38 µM (inactive); for `Cc1cccc(C2Nc3ccccc3C(=O)N2NC(=O)c2ccc([N+](=O)[O-])cc2)n1` (stereo unspecified), 8.47 µM.
Consider `CCc1ccc(N2C(=O)NC(=O)/C(=C\c3cccn3CCOc3ccc(C(C)C)cc3)C2=O)cc1`, for which the AC50 was > 38 µM (inactive).
With `COc1ccccc1C(=O)Oc1ccc2c(c1)O/C(=C\c1ccncc1)C2=O`, the AC50 is 10.8 µM.
For `O=C(O)CCCC(=O)NNc1nc(-c2ccccc2)c2cc(Cl)ccc2n1` the value was 13.3 µM; for `Cc1cc(C)cc(N2C(=O)NC(=O)/C(=C/c3cccn3-c3ccc(Cl)cc3)C2=O)c1`, > 38 µM (inactive); for `Cc1cccc(CS(=O)(=O)c2nnc([C@H](Cc3ccccc3)NC(=O)OC(C)(C)C)o2)c1`, > 38 µM (inactive).
For `N#C/C(=C\c1cn(-c2ccccc2)nc1-c1cc2ccccc2o1)c1nc2ccccc2[nH]1` the value was > 38 µM (inactive); for `Cn1c(=O)c2[nH]c(-c3ccccc3)c(O)c2n(C)c1=O`, 0.895 µM.
For `O=C(/C=C/Nc1ccc(S(=O)(=O)Nc2cnc3ccccc3n2)cc1)c1ccccc1` the value was > 38 µM (inactive); for `Oc1ccc(N=Nc2nccs2)c(O)c1`, 38.3 µM; for `CCC(C)[C@H](NC(=O)C1CC(=O)N(c2ccc3c(c2)OCO3)C1)C(=O)NC1CCCCC1` (stereo partly specified), 35.8 µM.
As for `COc1ccc(CN2C(=O)NC(=O)/C(=C\c3ccco3)C2=O)cc1`, the AC50 was 38.7 µM.
Regarding `COc1cccc(/C(O)=C/c2nc3ccc(C(=O)NCCc4ccc(Cl)cc4)cc3[nH]c2=O)c1`, the AC50 was 23.3 µM.
`CN1C(=O)C(=Cc2sc(=O)n(-c3ccccc3)c2N(C)C)C(=O)N(C)C1=O`: the AC50 is > 38 µM (inactive).
Then `O=C(O[C@@H]1OC2COC(=O)c3cc(O)c(O)c(O)c3-c3c(cc(O)c(O)c3O)C(=O)O[C@@H]([C@H]1O)[C@@H]2O)c1cc(O)c(O)c(O)c1`, with 5.19 µM; and `O=C(Nc1nc2c(s1)CN(Cc1ccccc1)CC2)c1cccc(S(=O)(=O)N2CCc3ccccc32)c1`, with > 38 µM (inactive); and `CC1=C(C#N)C(=O)N(C2CCS(=O)(=O)C2)C(=O)/C1=C\c1ccco1` (stereo unspecified), with 3.22 µM.
`Cc1cc2c(n1-c1ccc(C(=O)O)cc1)CCCCC2`: the AC50 is 9.57 µM.
Then `CCn1c(C)c(C(C)=O)c(N2CCN(c3ccccc3)CC2)nc1=S`, with > 38 µM (inactive); and `O=C(O)c1ccccc1NS(=O)(=O)c1cccc(-n2sc3ccccc3c2=O)c1`, with 7.89 µM; and `O=C(C[n+]1ccc(C(=O)N/N=C/c2ccc(OCc3ccccc3)cc2)cc1)c1ccccc1`, with 18.7 µM.
Then `CCOC(=O)/C=c1\s/c(=C\c2ccc3cc(OC)ccc3c2)c(=O)n1CC(=O)NCc1ccc2c(c1)OCO2`, with > 38 µM (inactive).
For the compound `COc1ccc2c(c1)c1nc3ccccc3nc1n2Cc1ccc(OC(C)C)c(OC)c1`, the AC50 is 24.3 µM.
Then `O=C(O)c1ccc(Cl)c2c1C1C=CCC1C(c1ccccn1)N2` (stereo unspecified), with 29 µM; and `O=[N+]([O-])c1ccc(NCc2ccccc2)c2nonc12`, with 0.744 µM; and `O=C(N/N=C/c1sc(=O)[nH]c1-[n+]1ccccc1)c1ccccc1[O-]`, with 30.2 µM.
Then `N#CC1(C#N)C(c2ccccc2)OC23CCCCC2C1(C#N)C(=N)O3` (stereo unspecified), with > 38 µM (inactive).
For `CC1CN(c2nc3ccccc3nc2C(C#N)C(=O)NCc2ccc3c(c2)OCO3)CC(C)O1` (stereo unspecified) the value was 23.8 µM; for `Cc1ccc(C)n1C(Cc1ccccc1)C(=O)O` (stereo unspecified), 8.84 µM; for `Cc1cc(/C=C2\SC(=S)N(Cc3ccco3)C2=O)c(C)n1-c1ccccc1`, 16.6 µM.
Consider `CCOC(=O)/C(C#N)=C/c1ccc(-c2ccsc2C(=O)OC)o1`, for which the AC50 was > 38 µM (inactive).
Then `CNC(=O)c1c(NC(=O)c2ccc(S(=O)(=O)N(C)c3ccccc3)cc2)sc2c1CCN(C(C)C)C2`, with 25.2 µM; and `Cc1cc(/C=C2\C(=O)NC(=O)N(Cc3ccccc3)C2=O)c(C)n1-c1ccc(Cl)c(C(=O)O)c1`, with 33.2 µM.
For `Cc1cccc(-n2c(O)c(/C=N/Nc3nc4c(c(=O)n(C)c(=O)n4C)n3C)c(=O)[nH]c2=S)c1`, the AC50 is 7.45 µM.
Then `CC(C)(C)C1CC=C2C(C#N)=C(N)C(C#N)(C#N)C(c3cccs3)C2C1` (stereo unspecified), with > 38 µM (inactive); and `CCOc1cc(Br)c(/C=C2/C(=O)N(C)C(=S)N2CC(=O)OC)cc1OC`, with > 38 µM (inactive).
For `CCOC(=O)c1c(/N=C/c2ccc(OC)cc2O)sc2c1CCN(C)C2` the value was > 38 µM (inactive); for `O=C1CS/C(=N\NC(=O)c2ccccc2)N1`, 12 µM.
Then `COc1ccccc1-n1c(C)nc2cc(C(=O)NCc3ccc4c(c3)OCO4)ccc21`, with > 38 µM (inactive); and `O=C(CCCN1C(=O)/C(=C/c2ccccc2Cl)SC1=S)NNC(=O)c1ccc(Cl)cc1`, with > 38 µM (inactive).
Take `O=C1C(Cl)=C(NC(=O)c2ccccc2)C(=O)C(Cl)=C1NC(=O)c1ccccc1`: the AC50 was < 0.3 µM.
Turning to `CC[n+]1c(/C=C/C=C/c2ccc(N(C)C)cc2)sc2ccccc21`, the AC50 was 18.8 µM.
`O=C(/C=C/c1ccc(O)c(O)c1)OC1C(O)CC(OC(=O)/C=C/c2ccc(O)c(O)c2)(C(=O)O)CC1O` (stereo unspecified): the AC50 is 15.9 µM.
Take `O=C(N/N=C/C1C(=O)NC(=S)N(c2ccccc2)C1=O)c1cc(Br)c(O)c(Br)c1` (stereo unspecified): the half-maximal activity concentration (AC50) was 13 µM.
For `Cc1ccccc1C(=O)N=c1ccn(-c2nc3ccccc3nc2NS(=O)(=O)c2ccccc2)cc1` the value was > 38 µM (inactive); for `COc1ccc(N2C(=O)NC(=O)/C(=C\c3ccc([N+](=O)[O-])s3)C2=O)cc1`, 18.7 µM; for `CN1CCN(c2ccc([N+](=O)[O-])c3no[n+]([O-])c23)CC1`, 33.4 µM.
For `CCOC(=O)c1c(-c2ccc(C)o2)csc1NC(=S)NC(=O)c1cccs1` the value was > 38 µM (inactive); for `O=C(N/N=C/c1oc(O)c2ccccc12)c1ccccc1O`, > 38 µM (inactive); for `Oc1ccc(/C=N/n2c(-c3ccccc3)n[nH]c2=S)cc1Br`, 13.1 µM.

(Values after PubChem BioAssay AID449745 (Broad Institute, 2010).)
